Experimental findings from ChEMBL document CHEMBL1147906, “A comparative study of mesoionic compounds in Leishmania sp. and toxicity evaluation” (Eur J Med Chem, 2007) are described below.

One series concerns Leishmania braziliensis. The series is described as follows: Antileishmanial activity against Leishmania braziliensis MCAN/BR/98/R619 promastigotes. It is filed as functional. The following applies: read-out: ED50 (the source's name).
Another series relates to Leishmania chagasi. The series is described as follows: Antileishmanial activity against Leishmania chagasi MCAN/BR/97/P142 promastigotes. The class given is functional. The note with it: read-out: ED50 (the source's name).
A short description of series [1]: Cytotoxicity against BALB/c mouse peritoneal macrophages assessed as cell viability after 24 hrs by MTT assay. It is filed as cell-based, Peritoneal macrophage cell. The note with it: read-out: TD50. (In general: Tetrazolium assays rely on reduction of a dye to a coloured formazan, in cell work by metabolically active cells.)

For the compound `Cc1ccc(/C=C/c2sc(Nc3ccccc3)n[n+]2-c2ccccc2)cc1`, the results for the EC50 in the series on Leishmania braziliensis and in the series with Leishmania chagasi were 20.7 µM and 31.1 µM, respectively. Besides, the CC50 at 24 h in series [1] is 4.94 µM.
Consider `Brc1ccc(/C=C/c2sc(Nc3ccccc3)n[n+]2-c2ccccc2)cc1`, for which the values for the EC50 in the series on Leishmania braziliensis and in the series on Leishmania chagasi were 2.93 µM and 9.97 µM, respectively. In addition, the CC50 at 24 h in series [1] was found to be 6.59 µM.
Consider `N#Cc1ccc(/C=C/c2sc(Nc3ccccc3)n[n+]2-c2ccccc2)cc1`, for which the EC50 worked out at 28.1 µM with Leishmania braziliensis and 16 µM with Leishmania chagasi. Besides, the CC50 at 24 h in series [1] was 441 µM.
For the compound `N=C(N)c1ccc(OCCCCCOc2ccc(C(=N)N)cc2)cc1` [PENTAMIDINE], the EC50 with Leishmania braziliensis stood at 64.2 µM; with Leishmania chagasi, 27.5 µM. For the same compound, the CC50 at 24 h in series [1] is 2.21 µM.
Regarding `Fc1ccc(/C=C/c2sc(Nc3ccccc3)n[n+]2-c2ccccc2)cc1`, the EC50 in the series with Leishmania braziliensis amounted to 5.1 µM; with Leishmania chagasi, 3.42 µM. Moreover, the CC50 at 24 h in series [1] was found to be 5.82 µM.
For `O=[N+]([O-])c1ccc(/C=C/c2sc(Nc3ccccc3)n[n+]2-c2ccccc2)cc1` the same measures were 70.8 µM, 22.8 µM and 5.49 µM.
As to `COc1cccc(/C=C/c2sc(Nc3ccccc3)n[n+]2-c2ccccc2)c1`, the EC50 in the series on Leishmania braziliensis came to 30.6 µM; in the series on Leishmania chagasi, 4.75 µM. For the same compound, in series [1], the CC50 at 24 h was found to be 0.61 µM.
For `Clc1ccc(/C=C/c2sc(Nc3ccccc3)n[n+]2-c2ccccc2)cc1` the same measures were 6.23 µM, 13.2 µM and 12 µM.
For the compound `Clc1cccc(/C=C/c2sc(Nc3ccccc3)n[n+]2-c2ccccc2)c1`, the EC50 with Leishmania braziliensis was found to be 1.72 µM; in the series on Leishmania chagasi, 5.17 µM. In addition, the CC50 at 24 h in series [1] amounted to 6.23 µM.
For `C(=C\c1sc(Nc2ccccc2)n[n+]1-c1ccccc1)/c1ccccc1` the same measures were 49.6 µM, 22.8 µM and 3.06 µM.
For `CCOc1ccc(/C=C/c2sc(Nc3ccccc3)n[n+]2-c2ccccc2)cc1` the same measures were 13 µM, 33.3 µM and 9.73 µM.
In the case of `Oc1ccc(/C=C/c2sc(Nc3ccccc3)n[n+]2-c2ccccc2)cc1`, the EC50 in the series on Leishmania braziliensis amounted to 376 µM; with Leishmania chagasi it was 415 µM. The CC50 at 24 h in series [1] stood at 32 µM.
As to `O=[N+]([O-])c1cccc(/C=C/c2sc(Nc3ccccc3)n[n+]2-c2ccccc2)c1`, the EC50 stood at 221 µM with Leishmania braziliensis and 23.6 µM in the series on Leishmania chagasi. Moreover, in series [1], the CC50 at 24 h was 5.54 µM.
For `COc1ccc(/C=C/c2sc(Nc3ccccc3)n[n+]2-c2ccccc2)cc1` the same measures were 46.2 µM, 8.31 µM and 1.13 µM.
Consider `Brc1cccc(/C=C/c2sc(Nc3ccccc3)n[n+]2-c2ccccc2)c1`, for which the EC50 in the series on Leishmania braziliensis is 25.9 µM; with Leishmania chagasi, 145 µM. The CC50 at 24 h in series [1] was 2.47 µM.
